Legend:
[1] = target: T1, MAO-B (Homo sapiens, UniProt P27338); assay: radioligand displacement of [3H]deprenyl, filtration; type: binding; conditions: [3H]deprenyl radioligand, PBS, 0.1% BSA, 2% DMSO
T1 construct: gene MAOB; native enzyme in human non-demented control (NDC) brain homogenate
T1 sequence (P27338 2-520): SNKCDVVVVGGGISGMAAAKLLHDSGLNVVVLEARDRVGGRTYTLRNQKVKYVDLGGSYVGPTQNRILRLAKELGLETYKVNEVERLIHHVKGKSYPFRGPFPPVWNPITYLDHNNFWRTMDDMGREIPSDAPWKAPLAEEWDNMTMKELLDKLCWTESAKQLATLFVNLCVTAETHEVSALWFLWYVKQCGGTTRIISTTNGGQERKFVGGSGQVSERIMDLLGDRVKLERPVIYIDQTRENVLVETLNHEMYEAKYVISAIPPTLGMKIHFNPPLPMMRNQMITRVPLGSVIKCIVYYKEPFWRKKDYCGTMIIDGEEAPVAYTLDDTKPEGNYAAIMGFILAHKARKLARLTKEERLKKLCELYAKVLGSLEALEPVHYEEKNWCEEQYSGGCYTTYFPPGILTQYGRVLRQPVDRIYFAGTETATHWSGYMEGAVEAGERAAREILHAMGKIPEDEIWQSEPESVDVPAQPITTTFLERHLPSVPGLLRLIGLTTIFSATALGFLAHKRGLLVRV

[2] = target: T2, MAO-A (Mus musculus, UniProt Q64133); assay: radioligand displacement of […]FEH, filtration; type: binding; conditions: [18F]fluoroethylharmine radioligand, PBS, 0.1% BSA, 2% DMSO
T2 construct: gene Maoa; native enzyme in mouse brain homogenate, 20 ug/well
T2 sequence (Q64133 1-526): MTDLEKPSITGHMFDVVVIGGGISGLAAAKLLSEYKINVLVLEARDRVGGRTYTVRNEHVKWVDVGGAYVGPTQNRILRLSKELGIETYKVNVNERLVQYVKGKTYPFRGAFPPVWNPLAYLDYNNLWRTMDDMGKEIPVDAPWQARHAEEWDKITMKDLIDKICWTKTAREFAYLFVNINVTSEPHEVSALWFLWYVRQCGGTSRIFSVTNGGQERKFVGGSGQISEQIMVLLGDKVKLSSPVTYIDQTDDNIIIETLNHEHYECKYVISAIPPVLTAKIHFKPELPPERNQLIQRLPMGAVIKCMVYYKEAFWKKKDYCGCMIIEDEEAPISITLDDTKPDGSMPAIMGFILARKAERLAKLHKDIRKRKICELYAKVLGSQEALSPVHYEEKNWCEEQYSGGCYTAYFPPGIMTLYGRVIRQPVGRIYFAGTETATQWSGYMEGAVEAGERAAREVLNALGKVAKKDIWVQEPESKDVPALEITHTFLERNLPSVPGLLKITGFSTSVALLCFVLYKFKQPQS

| Structure (SMILES) | pIC50 [1] | [^3H]Deprenyl MAO-B pIC50^c [1] | [^18F]FEH MAO-A pIC50^a [2] |
| --- | --- | --- | --- |
| CNc1ccc(-c2ccc3cc(OCC(O)CF)ccc3n2)cn1 (stereo not drawn) [THK5151, reference compound] | 7.4 | – | – |
| Fc1ccc(-c2ccc3c(c2)[nH]c2ccncc23)cn1 [compound 1, AV-1451] | – | 6.8 | 7.7 |
| Fc1ccc(-c2ccc3c(n2)[nH]c2ccncc23)cn1 [compound 3, RO6958948] | – | – | 6.3 |
| Fc1cnccc1-c1ccc2c(n1)[nH]c1ccncc12 [compound 8, 8] | – | – | 6.1 |
| Fc1cccc(-c2ccc3c(n2)[nH]c2ccncc23)n1 [compound 9, 9] | – | 6.5 | 6.6 |
| Fc1ccc(-c2ccc3c(n2)[nH]c2ccncc23)nc1 [compound 10, 10] | – | 6.5 | 7.1 |

From article PMC6667408, “Discovery and preclinical characterization of [^18F]PI-2620, a next-generation tau PET tracer for the assessment of tau pathology in Alzheimer’s disease and other tauopathies” (European Journal of Nuclear Medicine and Molecular Imaging, 2019)
